From ChEMBL document CHEMBL4359894, “Novel class of 7-Oxabicyclo[2.2.1]heptene sulfonamides with long alkyl chains displaying improved estrogen receptor α degradation activity” (Eur J Med Chem, 2019)
Each block holds one compound with its values, some of them ahead of it. Activity calls are given as the source filed them. The rule behind the calls is not given here. Where a SMILES comes first, the peptide text is derived from it. The star is where a group is joined. Cbz = O=C(OCc1ccccc1)*

Assays:
[1] = Therapeutic index, ratio of IC50 for cytotoxicity against human MCF10A cells to IC50 for antiproliferative activity against human MCF7 cells; type: toxicity, cell-based; conditions: read-out: Ratio IC50
MCF-10A = test: Cytotoxicity against human MCF10A cell incubated for 72 hrs by MTT assay; type: cell-based
[2] = target: T1, Estrogen receptor (Homo sapiens) (UniProt P03372); test: Induction of ERalpha degradation in human MCF7 cells assessed as decrease in ERalpha protein expression at 1 uM incubated for 24 hrs by Western blot analysis relative to control; type: cell-based; set-up: scale not given: the % may be the effect or the level left
T1 sequence (whole entry): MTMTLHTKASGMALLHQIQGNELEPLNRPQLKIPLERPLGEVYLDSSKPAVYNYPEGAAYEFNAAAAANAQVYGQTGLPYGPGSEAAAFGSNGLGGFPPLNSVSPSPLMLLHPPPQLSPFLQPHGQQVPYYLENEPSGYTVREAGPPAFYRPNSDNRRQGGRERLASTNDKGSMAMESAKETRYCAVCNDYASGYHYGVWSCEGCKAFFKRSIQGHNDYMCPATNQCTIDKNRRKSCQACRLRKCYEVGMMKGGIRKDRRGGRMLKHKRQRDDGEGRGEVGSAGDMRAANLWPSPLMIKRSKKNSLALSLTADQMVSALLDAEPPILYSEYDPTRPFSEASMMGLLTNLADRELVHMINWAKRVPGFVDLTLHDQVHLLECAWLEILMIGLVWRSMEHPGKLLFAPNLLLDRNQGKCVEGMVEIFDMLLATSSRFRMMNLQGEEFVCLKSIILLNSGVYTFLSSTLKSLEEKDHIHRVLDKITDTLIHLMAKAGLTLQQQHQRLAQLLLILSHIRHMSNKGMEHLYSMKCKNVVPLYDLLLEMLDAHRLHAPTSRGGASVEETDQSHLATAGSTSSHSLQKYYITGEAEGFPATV

[3] = target: Estrogen receptor beta (Homo sapiens) (UniProt Q92731); test: Binding affinity to ERbeta (unknown origin) by competitive fluorometric receptor binding assay relative to estradiol
MCF7 [4] = test: Antiproliferative activity against human MCF7 cell incubated for 72 hrs by MTT assay; type: functional, cell-based; conditions: MCF7, 72 h
[5] = target: T1, Estrogen receptor (Homo sapiens); test: Binding affinity to ERalpha (unknown origin) by competitive fluorometric receptor binding assay relative to estradiol
[6] = target: T1, Estrogen receptor (Homo sapiens); test: Induction of ERalpha degradation in human MCF7 cells assessed as decrease in ERalpha protein expression at 0.1 to 10 uM incubated for 24 hrs by Western blot analysis; type: cell-based
[7] = target: T1, Estrogen receptor (Homo sapiens); test: Induction of ERalpha degradation in human MCF7 cells assessed as decrease in ERalpha protein expression at 5 uM incubated for 24 hrs by Western blot analysis relative to control; type: cell-based; set-up: scale not given: the % may be the effect or the level left
[8] = target: T1, Estrogen receptor (Homo sapiens); test: Induction of ERalpha degradation in human MCF7 cells assessed as decrease in ERalpha protein expression at 10 uM incubated for 24 hrs by Western blot analysis; type: cell-based
MCF7 [9] = test: Induction of apoptosis in human MCF7 cells assessed as live cells at 5 uM incubated for 24 hrs by Annexin V-FITC/propidium iodide staining-based flow cytometric analysis (reference value: 85.37%); type: functional
MCF7 [10] = test: Induction of apoptosis in human MCF7 cells assessed as necrotic cells at 10 uM incubated for 24 hrs by Annexin V-FITC/propidium iodide staining-based flow cytometric analysis (reference value: 4.65%); type: functional
[11] = target: T1, Estrogen receptor (Homo sapiens); test: Induction of ERalpha degradation in human MCF7 cells assessed as decrease in ERalpha protein expression at 0.5 uM incubated for 24 hrs by Western blot analysis; type: cell-based
MCF7 [12] = test: Induction of apoptosis in human MCF7 cells assessed as live cells at 1 uM incubated for 24 hrs by Annexin V-FITC/propidium iodide staining-based flow cytometric analysis (reference value: 85.37%); type: functional
[13] = Half life in Sprague-Dawley rat at 3 mg/kg, iv administered via foot dorsal vein by LC-MS/MS analysis; type: ADME, organism-based; conditions: in vivo
MCF7 [14] = test: Induction of apoptosis in human MCF7 cells assessed as necrotic cells at 1 uM incubated for 24 hrs by Annexin V-FITC/propidium iodide staining-based flow cytometric analysis (reference value: 4.65%); type: functional
MCF7 [15] = test: Induction of apoptosis in human MCF7 cells assessed as early apoptotic cells at 5 uM incubated for 24 hrs by Annexin V-FITC/propidium iodide staining-based flow cytometric analysis (reference value: 1.26%); type: functional
[16] = AUC (0 to infinity) in Sprague-Dawley rat at 3 mg/kg, iv administered via foot dorsal vein by LC-MS/MS analysis; type: ADME, organism-based; set-up: dose 3 mg/kg, route intravenous, time infinity; conditions: in vivo
MCF7 [17] = test: Induction of apoptosis in human MCF7 cells assessed as late apoptotic cells at 5 uM incubated for 24 hrs by Annexin V-FITC/propidium iodide staining-based flow cytometric analysis (reference value: 8.73%); type: functional
MCF7 [18] = test: Induction of apoptosis in human MCF7 cells assessed as late apoptotic cells at 10 uM incubated for 24 hrs by Annexin V-FITC/propidium iodide staining-based flow cytometric analysis (reference value: 8.73%); type: functional
MCF7 [19] = test: Induction of apoptosis in human MCF7 cells assessed as late apoptotic cells at 1 uM incubated for 24 hrs by Annexin V-FITC/propidium iodide staining-based flow cytometric analysis (reference value: 8.73%); type: functional
[20] = Plasma clearance in Sprague-Dawley rat at 3 mg/kg, iv administered via foot dorsal vein by LC-MS/MS analysis; type: ADME, organism-based
MCF7 [21] = test: Induction of apoptosis in human MCF7 cells assessed as live cells at 10 uM incubated for 24 hrs by Annexin V-FITC/propidium iodide staining-based flow cytometric analysis (reference value: 85.37%); type: functional
[22] = Cmax in Sprague-Dawley rat at 3 mg/kg, iv administered via foot dorsal vein by LC-MS/MS analysis; type: ADME, organism-based; set-up: dose 3 mg/kg, route intravenous; conditions: in vivo
MCF7 [23] = test: Induction of apoptosis in human MCF7 cells assessed as early apoptotic cells at 10 uM incubated for 24 hrs by Annexin V-FITC/propidium iodide staining-based flow cytometric analysis (reference value: 1.26%); type: functional
MCF7 [24] = test: Induction of apoptosis in human MCF7 cells assessed as necrotic cells at 5 uM incubated for 24 hrs by Annexin V-FITC/propidium iodide staining-based flow cytometric analysis (reference value: 4.65%); type: functional
[25] = Tmax in Sprague-Dawley rat at 3 mg/kg, iv administered via foot dorsal vein by LC-MS/MS analysis; type: ADME, organism-based; conditions: in vivo
MCF7 [26] = test: Induction of apoptosis in human MCF7 cells assessed as early apoptotic cells at 1 uM incubated for 24 hrs by Annexin V-FITC/propidium iodide staining-based flow cytometric analysis (reference value: 1.26%); type: functional
[27] = Volume of distribution at steady state in Sprague-Dawley rat at 3 mg/kg, iv administered via foot dorsal vein by LC-MS/MS analysis; type: ADME, organism-based; conditions: in vivo, read-out: Vdss
[28] = target: T1, Estrogen receptor (Homo sapiens); test: Induction of ERalpha degradation in human MCF7 cells assessed as decrease in ERalpha protein expression at 5 uM incubated for 24 hrs in presence of proteasome inhibitor MG132 by Western blot analysis; type: cell-based

Estrogen receptor beta (Homo sapiens), sequence (Q92731 whole entry): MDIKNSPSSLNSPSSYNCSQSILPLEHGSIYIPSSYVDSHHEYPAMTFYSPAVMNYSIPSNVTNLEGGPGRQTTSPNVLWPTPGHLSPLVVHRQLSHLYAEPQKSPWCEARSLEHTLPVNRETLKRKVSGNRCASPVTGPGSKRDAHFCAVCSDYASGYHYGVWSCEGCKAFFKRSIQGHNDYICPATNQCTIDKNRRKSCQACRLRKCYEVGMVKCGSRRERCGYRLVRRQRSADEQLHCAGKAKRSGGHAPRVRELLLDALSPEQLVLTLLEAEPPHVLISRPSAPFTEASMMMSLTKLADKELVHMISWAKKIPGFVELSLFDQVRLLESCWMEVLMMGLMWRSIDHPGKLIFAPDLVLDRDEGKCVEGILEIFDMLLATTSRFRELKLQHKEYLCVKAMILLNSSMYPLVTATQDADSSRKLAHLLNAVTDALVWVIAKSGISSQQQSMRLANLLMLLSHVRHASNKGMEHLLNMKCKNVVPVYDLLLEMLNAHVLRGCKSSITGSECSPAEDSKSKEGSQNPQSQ

Activity [2]: Active
relative binding affinity (RBA) [3]: 0.07
IC50 (MCF7 [4]): 9.84 µM
relative binding affinity (RBA) [5]: 0.74
Activity [6]: Active
SMILES: COc1ccc(N(CC(F)(F)F)S(=O)(=O)[C@H]2C[C@H]3O[C@@H]2C(c2ccc(O)cc2)=C3c2ccc(O)cc2)cc1 (relative stereo)
selectivity ratio [1]: 4.2
IC50 (MCF-10A): 41.7 µM

relative binding affinity (RBA) [3]: 0.04
Activity [7]: 100%
IC50 (MCF7 [4]): 12.7 µM
relative binding affinity (RBA) [5]: 4.29
SMILES: CCCCCOc1ccc(C2=C(c3ccc(O)cc3)[C@H]3C[C@H](S(=O)(=O)N(CC(F)(F)F)c4ccc(OC)cc4)[C@@H]2O3)cc1 (relative stereo)
selectivity ratio [1]: 7.6
IC50 (MCF-10A): 97.3 µM

Activity [8]: inactive
SMILES: CC(C)C[C@@H](C=O)NC(=O)[C@H](CC(C)C)NC(=O)[C@H](CC(C)C)NC(=O)OCc1ccccc1 (Cbz-Leu-Leu-Leu-aldehyde)

Activity [11]: Active
Activity [2]: 100%
half-life [13]: 2.2 h
AUC(0-inf) [16]: 529 ng·h/mL
relative binding affinity (RBA) [3]: 0.86
clearance [20]: 105 mL/min/kg
Activity [7]: Active
Cmax [22]: 964 ng/mL
Tmax [25]: 4.8 min
IC50 (MCF7 [4]): 0.77 µM
relative binding affinity (RBA) [5]: 3.11
Vd [27]: 10.7 L/kg
Activity [28]: inactive
SMILES: CCCCCCOc1ccc(N(CC(F)(F)F)S(=O)(=O)[C@H]2C[C@H]3O[C@@H]2C(c2ccc(O)cc2)=C3c2ccc(O)cc2)cc1 (relative stereo)
selectivity ratio [1]: 51
Activity (MCF7 [9]): 12.95%
IC50 (MCF-10A): 39.3 µM
Activity (MCF7 [10]): 1.88%
Activity (MCF7 [12]): 79.95%
Activity (MCF7 [14]): 1.34%
Activity (MCF7 [15]): 36.96%
Activity (MCF7 [17]): 40.85%
Activity (MCF7 [18]): 18.77%
Activity (MCF7 [19]): 12.72%
Activity (MCF7 [21]): 13.39%
Activity (MCF7 [23]): 65.96%
Activity (MCF7 [24]): 9.24%
Activity (MCF7 [26]): 5.99%
